Key:
[1] = refractive index (Na D-line) (dimensionless); conditions: 101.33 kPa, Liquid, Standard Abbe refractometry
[2] = 101.33 kPa, Liquid
[3] = excess molar enthalpy (molar enthalpy of mixing); xn = mol fraction of the nth substance listed; conditions: 101 kPa, Liquid, Calvet calorimetry

CC1=CCC2CC1C2(C)C (centres undefined) [2-pinene]
Conditions | mass density, 298.15 K [kg/m3] | mass density, 308.15 K [kg/m3] | mass density, 318.15 K [kg/m3] | refractive index, 298.15 K | refractive index, 308.15 K | refractive index, 318.15 K
[1] | – | – | – | 1.4626 | 1.4581 | 1.4542
[2] | 854.03 | 845.79 | 838.64 | – | – | –

CC1=CCC2CC1C2(C)C (centres undefined) [2-pinene] + C=C1CCC2CC1C2(C)C
[3]
Conditions | excess molar enthalpy [kcal/mol]
298.15 K, x1 = 0.2012 | 0.00167
298.15 K, x1 = 0.3013 | 0.0022
298.15 K, x1 = 0.3987 | 0.00253
298.15 K, x1 = 0.4993 | 0.00265
298.15 K, x1 = 0.5994 | 0.00246
298.15 K, x1 = 0.7023 | 0.00227
298.15 K, x1 = 0.7998 | 0.00174
308.15 K, x1 = 0.2 | 0.00179
308.15 K, x1 = 0.3004 | 0.00241
308.15 K, x1 = 0.3999 | 0.00272
308.15 K, x1 = 0.5006 | 0.00284
308.15 K, x1 = 0.6013 | 0.00261
308.15 K, x1 = 0.6972 | 0.00237
308.15 K, x1 = 0.7998 | 0.00177
318.15 K, x1 = 0.2003 | 0.0021
318.15 K, x1 = 0.3001 | 0.00268
318.15 K, x1 = 0.4034 | 0.00304
318.15 K, x1 = 0.5 | 0.00315
318.15 K, x1 = 0.6004 | 0.00301
318.15 K, x1 = 0.7012 | 0.00272
318.15 K, x1 = 0.7975 | 0.00201

Cc1ccc(C(C)C)cc1 [1-(1-methylethyl)-4-methylbenzene]
Conditions | mass density, 298.15 K [kg/m3] | mass density, 308.15 K [kg/m3] | mass density, 318.15 K [kg/m3] | refractive index, 298.15 K | refractive index, 308.15 K | refractive index, 318.15 K
[1] | – | – | – | 1.4878 | 1.4831 | 1.4789
[2] | 853.47 | 845.59 | 838.46 | – | – | –

C=C1CCC2CC1C2(C)C (stereo not drawn) [β-pinene]
Conditions | mass density, 298.15 K [kg/m3] | mass density, 308.15 K [kg/m3] | mass density, 318.15 K [kg/m3] | refractive index, 298.15 K | refractive index, 308.15 K | refractive index, 318.15 K
[1] | – | – | – | 1.476 | 1.4714 | 1.4665
[2] | 867.06 | 859.08 | 852.08 | – | – | –

Reference: the NIST ThermoML archive (doi:10.1021/je060420p)
